The target of assay [1] is Glutamate receptor ionotropic, kainate. In words: Inhibitory activity against Ionotropic glutamate receptor kainate using [3H]-kainic acid as radioligand. The class given is protein-complex assay.
In assay [2] the target is Glutamate receptor ionotropic, AMPA (Rattus norvegicus, UniProt P19490+P19491+P19492+P19493). The assay is described as follows: Inhibitory activity against Ionotropic glutamate receptor AMPA using [3H]AMPA as radioligand. The assay is classed as protein-complex assay.
The species entered for assay [3] is Rattus norvegicus. The assay is described as follows: Effective dose against rat cortical slice cells using Electrophysiological experiment. The class given is functional. As to conditions: read-out: ED50 (the source's name).
Assay [4] concerns the target Glutamate NMDA receptor. In words: Inhibitory activity against N-methyl-D-aspartate glutamate receptor using [3H]CPP as radioligand. The class given is protein-complex assay.

Take `Cc1o[nH]c(=O)c1C(N)C(=O)O` (stereo not given): the IC50 in assay [1] and in assay [2] was over 100 µM throughout. For the same compound, in assay [3], the EC50 was 12 µM.
Turning to `NC(C(=O)O)c1cc(=O)[nH]o1` (stereo not given), the IC50 in assay [1] is over 100 µM; in assay [4], over 100 µM; in assay [2], 76 µM. For the same compound, the EC50 in assay [3] was found to be 3.8 µM.
`Cc1onc(O)c1[C@H](N)C(=O)O`: the results for the half-maximal inhibitory concentration (IC50) in assay [1], in assay [4] and in assay [2] were over 100 µM, 61 µM and over 100 µM, respectively. Besides, the EC50 in assay [3] came out at 75 µM.
Turning to `Cc1onc(O)c1[C@@H](N)C(=O)O`, the IC50 was over 100 µM in assay [1], 3.7 µM in assay [4] and 72 µM in assay [2]. The EC50 in assay [3] was found to be 7.3 µM.
As for `Cc1onc(O)c1C[C@H](N)C(=O)O` [(S)-AMPA], in assay [3], the EC50 came out at 580 µM.
Regarding `CN[C@H](CC(=O)O)C(=O)O` [N-METHYL-D-ASPARTIC ACID (NMDA)], the results for the 50% inhibitory concentration (IC50) in assay [1], in assay [4] and in assay [2] were over 100 µM, 35 µM and over 100 µM, respectively. The EC50 in assay [3] amounted to 15 µM.
